Laboratory results published in publication PMC6592262, “Isolation and functional characterization of two dioxygenases putatively involved in bixin biosynthesis in annatto (Bixa orellana L.)” (PeerJ, 2019).

Target: T1, BoCCD4-3 (Bixa orellana, UniProt A0A140CWS5)
T1 construct: gene CCD4-3; complete ORF (1,785 bp amplicon, predicted 30-residue transit peptide kept) in pDEST17, arabinose-induced in lycopene-accumulating E. coli BL21 (pACCRTEIB); cells or crude cell-free extract, not purified
Assay: cleavage in lycopene-accumulating E. coli and in cell-free extract; HPLC, UHPLC-ESI-QTOF-MS/MS, FTIR
Assay type: biochemical
Settings: 1 mM lycopene added 1:1 to extract, 22 °C, up to 5 min; product bixin aldehyde (m/z 349.2), 5,6/5',6' cleavage; crude extract

T1 sequence (A0A140CWS5 entry or part of it): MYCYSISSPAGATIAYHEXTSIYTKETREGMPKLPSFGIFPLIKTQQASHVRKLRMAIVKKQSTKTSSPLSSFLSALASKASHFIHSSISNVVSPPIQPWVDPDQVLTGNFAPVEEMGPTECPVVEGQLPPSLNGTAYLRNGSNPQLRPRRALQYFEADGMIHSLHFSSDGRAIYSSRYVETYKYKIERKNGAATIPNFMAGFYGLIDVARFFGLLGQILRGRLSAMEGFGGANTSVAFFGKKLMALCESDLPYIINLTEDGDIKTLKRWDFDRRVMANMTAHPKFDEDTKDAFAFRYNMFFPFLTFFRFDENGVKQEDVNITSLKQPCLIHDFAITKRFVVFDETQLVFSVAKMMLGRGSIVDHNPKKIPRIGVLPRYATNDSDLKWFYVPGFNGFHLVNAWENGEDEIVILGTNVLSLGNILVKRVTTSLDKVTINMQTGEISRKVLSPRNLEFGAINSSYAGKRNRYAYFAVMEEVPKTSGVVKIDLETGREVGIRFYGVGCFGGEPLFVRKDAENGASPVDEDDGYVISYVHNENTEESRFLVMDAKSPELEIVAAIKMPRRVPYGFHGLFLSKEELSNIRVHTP

CC(C)=CCC/C(C)=C/C=C/C(C)=C/C=C/C(C)=C/C=C/C=C(C)/C=C/C=C(C)/C=C/C=C(\C)CCC=C(C)C [lycopene]
cleavage in lycopene-accumulating E. coli and in cell-free extract; HPLC, UHPLC-: BoCCD4-3 is also able to cleave lycopene into bixin aldehyde, but at lower efficiency
